{"source": "patent US6713069B1", "about": "“Compositions and methods for detecting, preventing, and treating African Hemorrhagic Fever” (Board of Supervisors of Louisiana State University and …, priority 1996, dated 2004)", "origin": "cited, not measured here", "tested_on": "HIV", "data": [{"substance": "enfuvirtide", "values": [{"measurement": "inhibition of HIV infection and fusion", "value": "inhibit HIV infection and fusion at very low dosages"}]}]}
